Measured values: the Deep4Chem optical property database

Experiment: solvent given as SMILES

COC(=O)C1(C(=O)OC)Cc2c(C#Cc3ccccc3)c(-c3ccccc3)c3c(-c4ccccc4)c(-c4ccccc4)c(-c4ccccc4)c(-c4ccccc4)c3c2C1
absorption maximum (in C1CCOC1): 339.52 nm

Cc1cnc(NC(=O)C2=C([O-])c3ccccc3S(=O)(=O)N2C)s1
absorption maximum (in CC#N): 371 nm | absorption maximum (in CCCCO): 369 nm | absorption maximum (in CCCO): 368 nm | absorption maximum (in CCO): 366 nm | absorption maximum (in CO): 364 nm

c1cc2ccc3ccc4cc3c2cc1c1ccc2c(c1)c1cc(ccc1[C@]13OCCO[C@]21OCCO3)c1ccc2c(c1)c1cc4ccc1[C@]13OCCO[C@]21OCCO3
absorption maximum (in Cc1ccccc1): 353 nm

CCC1=C(C)C2=Cc3cccn3[B-](F)(F)[N+]2=C1C
absorption maximum (in C1CCCCC1): 512.5 nm | absorption maximum (in CC(C)=O): 503.5 nm | absorption maximum (in CCO): 505.5 nm | absorption maximum (in CCOC(C)=O): 505 nm | absorption maximum (in CO): 504.5 nm | absorption maximum (in OCC(F)(F)F): 494.5 nm

CC1=[N+]2C(=C(c3c4ccccc4cc4ccccc34)c3ccc(/C=C/C(C)(C)C)n3[B-]2(F)F)C=C1
absorption maximum (in ClC(Cl)Cl): 549 nm

CCN(CC)c1ccc2c(-c3ccccc3C(=O)O)c3c([o+]c2c1)/C(=C/C=C/c1ccc(N(C)C)cc1)CCC3
absorption maximum (in ClCCl): 749 nm

Cc1ccc(N(c2ccc(C)cc2)c2ccc3c4cccc5c(N(c6ccc(C)cc6)c6ccc(C)cc6)ccc(c6cccc2c63)c54)cc1
absorption maximum (in C1CCCCC1): 506 nm | absorption maximum (in C1CCOC1): 502 nm | absorption maximum (in CC#N): 496 nm | absorption maximum (in Cc1ccccc1): 507 nm | absorption maximum (in ClCCl): 473 nm

CC(C)c1cccc(C(C)C)c1N1C(c2ccccc2)=Cc2ccc3ccccc3[n+]2[B-]1(F)F
absorption maximum (in ClCCl): 447 nm

CC(C)(C)c1cc2ccc3cccc4c3c2c(c1)c1nc2c3cc(C(C)(C)C)cc5ccc6cccc(c(=O)n2c41)c6c53
absorption maximum (in C1CCOC1): 395 nm | absorption maximum (in CC#N): 389 nm | absorption maximum (in CC(C)=O): 391 nm | absorption maximum (in CCCCCC): 393 nm | absorption maximum (in CCO): 390 nm | absorption maximum (in CCOC(C)=O): 390 nm | absorption maximum (in CO): 382 nm | absorption maximum (in CS(C)=O): 391 nm | absorption maximum (in Cc1ccc(C)cc1): 392 nm | absorption maximum (in ClC(Cl)(Cl)Cl): 395 nm | absorption maximum (in ClC(Cl)Cl): 395 nm | absorption maximum (in c1ccccc1): 395 nm

c1ccc2c(c1)OB1Oc3ccccc3-c3c1c-2c1c2c3-c3ccccc3OB2Oc2ccccc2-1
absorption maximum (in ClCCl): 405 nm

c1ccc2c(c1)OP1(=NP(Oc3ccc4ccc5cccc6ccc3c4c56)(Oc3ccc4ccc5cccc6ccc3c4c56)=NP(Oc3ccc4ccc5cccc6ccc3c4c56)(Oc3ccc4ccc5cccc6ccc3c4c56)=N1)Oc1ccccc1-2
absorption maximum (in ClCCl): 343 nm

COc1ccc(C#Cc2c3ccccc3c(C#Cc3ccc(OC)cc3)c3cc4ccccc4cc23)cc1
absorption maximum (in ClCCl): 559 nm

CN(C)c1ccc2nc(/C=C/c3ccccc3)c(=O)oc2c1
absorption maximum (in C1CCCCC1): 438.5 nm | absorption maximum (in C1COCCO1): 453 nm | absorption maximum (in CC#N): 463 nm | absorption maximum (in CC(C)=O): 462 nm | absorption maximum (in CCCCCCC): 436 nm | absorption maximum (in CCO): 466 nm | absorption maximum (in CCOC(C)=O): 457 nm | absorption maximum (in CN(C)C=O): 469 nm | absorption maximum (in CS(C)=O): 475 nm | absorption maximum (in Cc1ccccc1): 459.5 nm | absorption maximum (in ClC(Cl)Cl): 467 nm | absorption maximum (in ClCCl): 467.5 nm

Cn1c(=O)c(-c2ccccc2)nc2ccccc21
absorption maximum (in c1ccccc1): 369 nm

Cc1cc(=O)oc2cc(O)ccc12
absorption maximum (in CCO): 323 nm

Cc1ccc(-c2ccc(C(=O)NC(C)(C)C)c3c2ccc2c4ccccc4c4ccccc4c23)cc1
absorption maximum (in ClCCl): 341 nm

CC1(C)C(/C=C/C2=C(Cl)C(=C/C=C3/N(Cc4ccc(C(=O)O)cc4)c4ccccc4C3(C)C)/CCC2)=[N+](Cc2ccc(C(=O)O)cc2)c2ccccc21
absorption maximum (in CO): 786 nm

CN(C)c1ccc(-c2ccc(-c3cc(-c4ccccc4)c(-c4ccccc4)c(-c4ccccc4)c3-c3ccccc3)nc2)cc1
absorption maximum (in ClC(Cl)Cl): 332 nm

c1ccc(-c2ccc(-c3ccccc3)s2)cc1
absorption maximum (in C1CCOC1): 341 nm

O=C1c2ccccc2-c2cnccc21
absorption maximum (in CC#N): 397.05 nm | absorption maximum (in CCCCCC): 394.16 nm

[O-][n+]1c(/C=C/c2ccc3ccccc3c2)nc(N2CCOCC2)c2c1CCCC2
absorption maximum (in ClCCl): 400 nm

O=c1oc2ccccc2c2cc(N3c4ccccc4Oc4ccccc43)ccc12
absorption maximum (in Cc1ccccc1): 395 nm

c1cc2ccc1CCCc1cc3c(cc1CCCc1ccc(c4nsnc14)CCC3)CCC2
absorption maximum (in C1CCCCC1): 402 nm | absorption maximum (in CC#N): 403 nm | absorption maximum (in ClC(Cl)Cl): 402 nm

CCCCN(CCCC)c1ccc(/C=C/c2ccc3nc(/C=C/c4ccc(N(C)C)cc4)c(=O)n(CCC)c3c2)cc1
absorption maximum (in C1COCCO1): 481 nm | absorption maximum (in CC#N): 488 nm | absorption maximum (in ClCCl): 494 nm

F[B-]1(F)OC(c2cccc(Br)c2)=Cc2c3ccccc3cc[n+]21
absorption maximum (in ClC(Cl)Cl): 399.5 nm

CCCCn1c2ccccc2c2ccc3c4cc(-c5ccc(C(F)(F)F)cc5)ccc4n(CCCC)c3c21
absorption maximum (in ClC(Cl)Cl): 326 nm

CC(C)c1cc(C(C)C)c(B2c3ccccc3Oc3cc(N4c5ccccc5C5(c6ccccc6Oc6ccccc65)c5ccccc54)ccc32)c(C(C)C)c1
absorption maximum (in Cc1ccccc1): 429 nm

COc1ccc(-c2nc3c(c4c2-c2ccccc2CC4)-c2ccccc2CC3)cc1
absorption maximum (in C1CCOC1): 322 nm | absorption maximum (in CC#N): 321 nm | absorption maximum (in CCCCCC): 322 nm | absorption maximum (in CCOC(C)=O): 310 nm | absorption maximum (in CO): 318 nm | absorption maximum (in CS(C)=O): 320 nm | absorption maximum (in Cc1ccccc1): 320 nm | absorption maximum (in ClCCl): 322 nm

O=C1CC(c2ccc([N+](=O)[O-])cc2)c2c(c3ccccc3c3nc4ccccc4nc23)O1 (stereo not drawn)
absorption maximum (in ClC(Cl)Cl): 408 nm

Cc1cc(-n2c3ccccc3c3cc4c(cc32)C2c3ccccc3C4c3ccccc32)c(C)cc1-c1nc(-c2ccccc2)nc(-c2ccccc2)n1
absorption maximum (in Cc1ccccc1): 345 nm

CCCCCCCCCCCCSc1cc2c3c(ccc4c5c(SCCCCCCCCCCCC)cc6c7c(ccc(c1c34)c75)C(=O)N(C1CCCCC1)C6=O)C(=O)N(C1CCCCC1)C2=O
absorption maximum (in ClC(Cl)Cl): 574 nm

CCCCn1c2c(-c3ccc(N(c4ccccc4)c4ccccc4)cc3)cc(C#N)cc2c2cc(C#N)cc(-c3ccc(N(c4ccccc4)c4ccccc4)cc3)c21
absorption maximum (in ClCCl): 351 nm

C(=C\c1ccc2ccccc2c1)/c1ccc(N(c2ccccc2)c2ccccc2)cc1
absorption maximum (in CC#N): 371 nm | absorption maximum (in CCCCCC): 371 nm

C(=C\c1ccnc2ccccc12)/c1ccc(/C=C/c2ccnc3ccccc23)cc1
absorption maximum (in C1CCCCC1): 364 nm | absorption maximum (in C1COCCO1): 370 nm | absorption maximum (in CC#N): 370 nm | absorption maximum (in CC(C)=O): 371 nm | absorption maximum (in CC(C)O): 374 nm | absorption maximum (in CCCO): 374 nm | absorption maximum (in CCO): 374 nm | absorption maximum (in CN(C)C=O): 378 nm | absorption maximum (in CO): 374 nm | absorption maximum (in CS(C)=O): 382 nm | absorption maximum (in ClC(Cl)Cl): 370 nm | absorption maximum (in ClCCl): 370 nm | absorption maximum (in OCCO): 382 nm

CCNCC
absorption maximum (in CCCCCC): 193 nm

O=C1C=CC2=Cc3ccccc3B(O)N12
absorption maximum (in CC#N): 360 nm | absorption maximum (in CO): 364 nm | absorption maximum (in CS(C)=O): 364 nm | absorption maximum (in ClC(Cl)Cl): 365 nm

CCCCCOc1cc2oc(=O)c3c4ccc(O)cc4c4ccc5cccc6c(c1)c2c3c4c56
absorption maximum (in C1CCOC1): 443 nm

COc1ccc(C#Cc2c3ccccc3c(C#Cc3ccc(OC)cc3)c3cc4sc(C)cc4cc23)cc1
absorption maximum (in ClCCl): 520 nm

CC1=CS[C@]2(C)C1=C1C(=C3C(C)=C(c4ccc(-c5nc(-c6ccccc6)c(-c6ccccc6)[nH]5)cc4)S[C@]32C)C(F)(F)C(F)(F)C1(F)F
absorption maximum (in C1CCOC1): 565 nm

CCCCCC(=O)c1c2c(c(C(=O)CCCCC)c3c1OC1(CCCC1)O3)OC1(CCCC1)O2
absorption maximum (in CC#N): 444 nm | absorption maximum (in CCCCCC): 435 nm | absorption maximum (in CCO): 452 nm | absorption maximum (in CO): 452 nm | absorption maximum (in ClCCl): 449 nm

CCCN(CCC)CCC
absorption maximum (in CCCCCC): 199 nm

Cc1ccccc1C1=C2C=c3c(oc4ccccc34)=[N+]2[B-](F)(F)n2c1cc1c3ccccc3oc12
absorption maximum (in C1CCCCC1): 586.5 nm | absorption maximum (in CCOC(C)=O): 582 nm | absorption maximum (in CO): 580.5 nm

COc1cccc2cc(C)c3c4ccccc4n(C)c3c12
absorption maximum (in ClCCl): 370 nm

O=c1oc2ccccc2c2c1c(=O)oc1c3ccccc3cc(O)c12
absorption maximum (in CS(C)=O): 480 nm | absorption maximum (in ClCCl): 447 nm

c1ccc(C(=C(c2ccccc2)c2ccc(-c3ccc(-c4nc5c(-c6ccc(-c7ccc(C(=C(c8ccccc8)c8ccccc8)c8ccccc8)cc7)cc6)sc(-c6ccc(-c7ccc(C(=C(c8ccccc8)c8ccccc8)c8ccccc8)cc7)cc6)c5nc4-c4ccc(-c5ccc(C(=C(c6ccccc6)c6ccccc6)c6ccccc6)cc5)cc4)cc3)cc2)c2ccccc2)cc1
absorption maximum (in Cc1ccccc1): 530 nm | absorption maximum (in ClCCl): 520 nm

C[C@@]12SC(Cl)=CC1=c1nc(-c3ccc(Cl)cc3)[nH]c1=C1C=C(Cl)S[C@]12C
absorption maximum (in CC#N): 327 nm

C(#Cc1ccccc1)C(C#Cc1ccccc1)=Cc1ccc2cc(C=C(C#Cc3ccccc3)C#Cc3ccccc3)ccc2c1
absorption maximum (in ClC(Cl)Cl): 418 nm

Cn1c(=O)nc2n(C)c3ccccc3nc-2c1=O
absorption maximum (in CC1CCCO1): 460 nm | absorption maximum (in CC#N): 437 nm

c1ccc2cc3c(cc2c1)oc1c2oc4cc5ccccc5cc4c2c2ccccc2c31
absorption maximum (in C1CCOC1): 395 nm

CCN(CC)c1ccc(/N=N/c2nc3ccc(Br)cc3s2)cc1
absorption maximum (in CC#N): 520 nm | absorption maximum (in ClCCl): 518 nm

CC(C)CCCC(C)CCN1C(=O)c2ccc3c(-c4ccccc4)c4c5ccc6c7c(ccc(c(-c8ccccc8)c4c4ccc(c2c34)C1=O)c75)C(=O)N(CCC(C)CCCC(C)C)C6=O (stereo not drawn)
absorption maximum (in ClCCl): 630 nm

CC1=CC(C)=[N+]2C1=C(C1=C(C)C3=C(C)c4c(C)cc(C)n4[B-](F)(F)[N+]3=C1C)c1c(C)cc(C)n1[B-]2(F)F
absorption maximum (in ClC(Cl)Cl): 516 nm

c1ccc(-n2c(-c3c(-n4c5ccccc5c5ccccc54)cccc3-n3c4ccccc4c4ccccc43)nc3ccccc32)cc1
absorption maximum (in C1CCOC1): 342 nm

CC(C)[Si](C#Cc1c2nsnc2c(C#C[Si](C(C)C)(C(C)C)C(C)C)c2nc3c(ccc4ccccc43)nc12)(C(C)C)C(C)C
absorption maximum (in CCCCCC): 607 nm

c1ccc(-c2c3ccccc3c(-c3ccccc3)c3cc4ccccc4cc23)cc1
absorption maximum (in ClCCl): 493 nm
